In brackets after ≈: the same amount, converted by molar mass. Read-outs that look alike come from different tables or passages of the source. Residues, ends and D or L forms follow the SMILES beside them.
What was measured:
Assay type in all cases: cell-based
Streptococcus pyogenes = tested on: Streptococcus pyogenes
Procedure: (§1) Seven bacteria including Vibrio parahaemolyticus, Vibrio fluvialis, Vibrio alginolyticus, Escherichia coli, Aeromonas hydrophila, Staphylococcus aureus and Streptococcus pyogenes were grown in LB medium at 30 °C and diluted to 10^6 CFU/mL in 0.01 M, pH 7.6 PBS. Peptides were diluted in PBS. The bacteria and diluted peptides were mixed in equal volumes, and then incubated at 30 °C for 2 h. […] Experiments were carried out in triplicate and repeated at least three times. Data are presented as mean ± standard deviation. GraphPad prism 6 was used to analyze the data with the statistical significance determined by one-way ANOVA and Student’s t test, and all experiments were carried out in triplicate.

Staphylococcus aureus = tested on: Staphylococcus aureus
Procedure: as §1

Vibrio alginolyticus = tested on: Vibrio alginolyticus
Procedure: as §1

Vibrio fluvialis = tested on: Vibrio fluvialis
Procedure: as §1

Aeromonas hydrophila = tested on: Aeromonas hydrophila
Procedure: as §1

Escherichia coli = tested on: Escherichia coli
Procedure: as §1

Vibrio parahaemolyticus = experiment: Minimal inhibitory concentration (MIC); details: Gram negative; bacteria 10^6 CFU/mL in 0.01 M PBS pH 7.6 mixed with equal volume of peptide in PBS, 30 °C 2 h, plated on LB agar 30 °C overnight; triplicate, repeated at least three times
Procedure: as §1

[1] = tested on: seven bacteria (V. parahaemolyticus, V. fluvialis, V. alginolyticus, E. coli, A. hydrophila, S. aureus, S. pyogenes); experiment: MIC summarised over the seven bacteria (GB, average MIC, fold change); details: for decrease of antibacterial activity relative to L1: from MICs of Table 3, except for S.pyogenes; for GB: summary of the MICs over the seven bacteria, footnote b not given
Procedure: as §1

[2] = Gram positive, bacteria 10^6 CFU/mL in 0.01 M PBS pH 7.6 mixed with equal volume of peptide in PBS, 30 °C 2 h, plated on LB agar 30 °C overnight, triplicate, repeated at least three times
[3] = Gram negative, bacteria 10^6 CFU/mL in 0.01 M PBS pH 7.6 mixed with equal volume of peptide in PBS, 30 °C 2 h, plated on LB agar 30 °C overnight, triplicate, repeated at least three times

## CC[C@H](C)[C@H](NC(=O)[C@H](CC(N)=O)NC(=O)[C@H](CC(=O)O)NC(=O)[C@H](Cc1ccc(O)cc1)NC(=O)[C@@H](NC(=O)[C@H](CCCCN)NC(=O)[C@H](Cc1c[nH]cn1)NC(=O)[C@H](CC(C)C)NC(=O)[C@H](CC(C)C)NC(=O)[C@H](Cc1ccccc1)NC(=O)[C@H](CC(N)=O)NC(=O)[C@@H](N)C(C)C)[C@@H](C)CC)C(=O)N[C@@H](CCCNC(=N)N)C(=O)N[C@@H](Cc1ccc(O)cc1)C(=O)N[C@@H](CO)C(N)=O [M2] (H-VNFLLHKIYDNIRYS-NH2)
Streptococcus pyogenes; 2 h, pH 7.6
  MIC S. pyogenes: 62.5 µg/mL (≈ 33 µM)
Staphylococcus aureus; 2 h, pH 7.6
  MIC S. aureus: > 250 µg/mL
Vibrio alginolyticus; 2 h, pH 7.6
  MIC V. alginolyticus: > 250 µg/mL
Vibrio fluvialis; 2 h, pH 7.6
  MIC V. fluvialis: > 250 µg/mL
Aeromonas hydrophila; 2 h, pH 7.6
  MIC A. hydrophila: 15.6 µg/mL (≈ 8.24 µM)
Escherichia coli; 2 h, pH 7.6
  MIC E. coli: 7.8 µg/mL (≈ 4.12 µM)
Vibrio parahaemolyticus
  MIC V. parahaemolyticus: 62.5 µg/mL (≈ 33 µM)
[1]
  decrease of antibacterial activity relative to L1: 2- to 64 fold
  GB: 69.0 µg/mL

## NC[C@H]1O[C@H](O[C@H]2[C@H](O)[C@@H](O[C@H]3O[C@H](CO)[C@@H](O)[C@H](N)[C@H]3O)[C@H](N)C[C@@H]2N)[C@H](O)[C@@H](O)[C@@H]1O [Kanamycin, reference compound]
Streptococcus pyogenes; [2]
  MIC S. pyogenes: 1 µg/mL (≈ 2.06 µM)
Staphylococcus aureus; [2]
  MIC S. aureus: 2 µg/mL (≈ 4.13 µM)
Vibrio alginolyticus; [3]
  MIC V. alginolyticus: 0.5 µg/mL (≈ 1.03 µM)
Vibrio fluvialis; [3]
  MIC V. fluvialis: 1 µg/mL (≈ 2.06 µM)
Aeromonas hydrophila; Gram negative (Table 2), bacteria 10^6 CFU/mL in 0.01 M PBS pH 7.6 mixed with equal volume of peptide in PBS, 30 °C 2 h, plated on LB agar 30 °C overnight, triplicate, repeated at least three times
  MIC A. hydrophila: 1 µg/mL (≈ 2.06 µM)
Escherichia coli; [3]
  MIC E. coli: 2 µg/mL (≈ 4.13 µM)
Vibrio parahaemolyticus
  MIC V. parahaemolyticus: 1 µg/mL (≈ 2.06 µM)
[1]
  GB: 1.1 µg/mL

## CC[C@H](C)[C@H](NC(=O)[C@H](CCCCN)NC(=O)[C@H](Cc1c[nH]cn1)NC(=O)[C@H](CC(C)C)NC(=O)[C@H](CC(C)C)NC(=O)[C@H](Cc1ccccc1)NC(=O)[C@H](CC(N)=O)NC(=O)[C@@H](N)C(C)C)C(=O)N[C@@H](Cc1ccc(O)cc1)C(=O)NCC(=O)N[C@@H](CC(N)=O)C(=O)N[C@H](C(=O)N[C@@H](CCCNC(=N)N)C(=O)N[C@@H](CC(=O)O)C(=O)N[C@@H](CO)C(N)=O)[C@@H](C)CC [M3] (H-VNFLLHKIYGNIRDS-NH2)
Streptococcus pyogenes; 2 h, pH 7.6
  MIC S. pyogenes: 62.5 µg/mL (≈ 35 µM)
Staphylococcus aureus; 2 h, pH 7.6
  MIC S. aureus: 62.5 µg/mL (≈ 35 µM)
Vibrio alginolyticus; 2 h, pH 7.6
  MIC V. alginolyticus: 3.9 µg/mL (≈ 2.18 µM)
Vibrio fluvialis; 2 h, pH 7.6
  MIC V. fluvialis: 62.5 µg/mL (≈ 35 µM)
Aeromonas hydrophila; 2 h, pH 7.6
  MIC A. hydrophila: 3.9 µg/mL (≈ 2.18 µM)
Escherichia coli; 2 h, pH 7.6
  MIC E. coli: 3.9 µg/mL (≈ 2.18 µM)
Vibrio parahaemolyticus
  MIC V. parahaemolyticus: 31.2 µg/mL (≈ 17.4 µM)
[1]
  decrease of antibacterial activity relative to L1: no change
  GB: 14.2 µg/mL

## CC[C@H](C)[C@H](NC(=O)[C@H](CCCCN)NC(=O)[C@H](Cc1c[nH]cn1)NC(=O)[C@H](CC(C)C)NC(=O)[C@H](CC(C)C)NC(=O)CNC(=O)[C@H](CC(N)=O)NC(=O)[C@@H](N)C(C)C)C(=O)N[C@@H](Cc1ccc(O)cc1)C(=O)NCC(=O)N[C@@H](CC(N)=O)C(=O)N[C@H](C(=O)N[C@@H](CCCNC(=N)N)C(=O)N[C@@H](Cc1ccc(O)cc1)C(=O)N[C@@H](CO)C(N)=O)[C@@H](C)CC [M1] (H-VNGLLHKIYGNIRYS-NH2)
Streptococcus pyogenes; 2 h, pH 7.6
  MIC S. pyogenes: 15.6 µg/mL (≈ 8.93 µM)
Staphylococcus aureus; 2 h, pH 7.6
  MIC S. aureus: > 250 µg/mL
Vibrio alginolyticus; 2 h, pH 7.6
  MIC V. alginolyticus: 250 µg/mL (≈ 143 µM)
Vibrio fluvialis; 2 h, pH 7.6
  MIC V. fluvialis: 250 µg/mL (≈ 143 µM)
Aeromonas hydrophila; 2 h, pH 7.6
  MIC A. hydrophila: 15.6 µg/mL (≈ 8.93 µM)
Escherichia coli; 2 h, pH 7.6
  MIC E. coli: 15.6 µg/mL (≈ 8.93 µM)
Vibrio parahaemolyticus
  MIC V. parahaemolyticus: 62.5 µg/mL (≈ 35.8 µM)
[1]
  decrease of antibacterial activity relative to L1: 2- to 64 fold
